Here are results for three compounds from patent EP0561237A2, “Enantiomer, (-)-N-(2-ethoxyphenyl)-N'-(1,2,2-trimethylpropyl)-2-nitromethene-1,1-diamine, process for its preparation and its use” (BAYER AG, priority 1992, dated 1993).

One assay has as its system Gefäßmuskulatur. As to conditions: described in DE 32 32 462; cited from earlier work.
The subject of the next assay is ATP-abhängige K-Kanäle. Description: Glyburide sensitivity of the hyperpolarising effect. It counts as cell-based. The settings on record: with glyburide.
In another assay the test system is A10-Zellen. The assay is described as follows: Activity on vascular tissue (A10 cells). Format: cell-based. The settings on record: read-out: IC₅₀.
For another assay, the system named is Neuronen. Description: Effect (hyperpolarising activity) on neurons. Format: cell-based, Ratten.
Assay [1] deals with MIPP-N1E-115-Neuroblastomlinie. The assay is described as follows: Hyperpolarising activity in neuroblastoma cell line. It counts as cell-based. As to conditions: for hyperpolarisierende Wirkung: MIPP-N1E-115 neuroblastoma line.
The subject of assay [2] is Neuronen vom Typ der Pyramidenzellen aus dem Hippocampus. The assay is described as follows: Neuroprotection on single neurons of the central nervous system. Format: cell-based, Ratten. As to conditions: single neurons from rat CNS; inhibition of raised calcium during long-term depolarisation.
The subject of assay [3] is Zellinie des glatten Muskels. The assay is described as follows: Activity in a smooth muscle cell line. It counts as cell-based.

Like-named read-outs stand apart in the source and are kept apart here.

Take `CCOc1ccccc1NC(=C[N+](=O)[O-])NC(C)C(C)(C)C` (racemic) [racemische Gemisch, N-(2-Ethoxyphenyl)-N'-(1,2,2-trimethylpropyl)-2-nitroethen-1,1-diamin]: in the assay on Gefäßmuskulatur, the “Wirkung auf die Gefäßmuskulatur” value is recorded as “eine Wirkung auf die Gefäßmuskulatur ausübt”.

Take `CCOc1ccccc1NC(=C[N+](=O)[O-])NC(C)C(C)(C)C` (single isomer, unassigned; (+)) [Beispiel 2, (+)-N-(2-Ethoxyphenyl)-N'-(1,2,2-trimethylpropyl)-2-nitroethen-1,1-diamin]: the “hyperpolarisierende Wirkung, Blockierbarkeit durch Glyburide” value in the assay with ATP-abhängige K-Kanäle (listed as (+)-Enantiomer) is “durch Glyburide inhibierbares Hyperpolarisierungsmittel”. Further, in the assay on A10-Zellen (listed as (+)-Enantiomer), the IC50 turned out to be 15 nM. Further, the “Blockierung der Wirkung des (-)-Enantiomers auf Neuronen” value in the assay with Neuronen ((+)-enantiomer 1 µM against effect of 5 pM (-)-enantiomer) is listed as “blockiert”. Besides, the EC50 in the assay on Neuronen (Neuron, in neurons, read-out: EC₅₀-Wert) stood at 500 nM. In the assay with Neuronen (multiple of the 5 pM concentration of the (-)-enantiomer in neurons), the “Konzentration, bei der wirksam, als Vielfaches der Konzentration des (-)-Enantiomers” value was > 10 000 -fach. In addition, the “hyperpolarisierende Wirkung” value in assay [1] (listed as (+)-Enantiomer) was “nicht auf das (+)-Enantiomer anspricht”.

As for `CCOc1ccccc1NC(=C[N+](=O)[O-])NC(C)C(C)(C)C` (single isomer, unassigned; (-)) [Beispiel 1, (-)-N-(2-Ethoxyphenyl)-N'-(1,2,2-trimethylpropyl)-2-nitroethen-1,1-diamin], in the assay with ATP-abhängige K-Kanäle (listed as (-)-Enantiomer), the “hyperpolarisierende Wirkung, Blockierbarkeit durch Glyburide” value is listed as “durch Glyburide nicht blockiert”. For the same compound, in assay [2], the Neuroprotektion result is on record as “bemerkenswerte Neuroprotektion”. The IC50 with A10-Zellen (listed as (-)-Enantiomer) was determined as 250 nM; in the assay with Neuronen (Neuron, in neurons, read-out: IC₅₀-Wert) it was 0.005 nM. In addition, the Wirksamkeit entry in assay [3] is listed as “unwirksam”. The “hyperpolarisierende Wirkung” value in assay [1] (listed as (-)-Enantiomer) is reported as “wirksam”. Besides, the EC50 in assay [1] (Neuroblastoma cell, newly found hyperpolarising activity not blocked by glyburide, read-out: EC₅₀) was less than 0.01 nM.
